“And” between values parts separate entries of the source, which are not always exact repeats. Equal values may be shown once.
Experiments:
Mcl-1 protein = target: T1, Mcl-1 protein (Homo sapiens, UniProt Q07820); assay: FP-based competitive binding assay with fluorescent labelled Bid BH3 peptide; conditions: for Ki: calculated from FP IC50; for IC50: competition with fluorescent Bid probe 2 nM, 20 nM Mcl-1 for purchased compounds, 10 nM for synthesized library
T1 construct: human Mcl-1 (residues 171–323); His tag (pHis-TEV vector) (N, cleaved yes); made in house; host or cells: E. coli BL21 (DE3)
T1 sequence (Q07820 171-323): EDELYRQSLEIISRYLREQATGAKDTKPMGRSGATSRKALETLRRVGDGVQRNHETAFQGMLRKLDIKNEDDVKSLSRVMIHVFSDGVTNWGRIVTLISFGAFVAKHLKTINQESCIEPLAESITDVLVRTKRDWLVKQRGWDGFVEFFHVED
Experimental: (§1) FP-based binding assays were developed and optimized to determine the binding affinities of inhibitors to the recombinant Mcl-1, Bcl-2, Bcl-xL, and Bfl-1, proteins. […] The fluorescent Bid probe was fixed at 2 nM for all assays, except for Bfl-1, where 1 nM was used. 5 μL of the tested compound in DMSO and 120 μL of protein/probe complex in the assay buffer were added to assay plates (Corning #3792), incubated at room temperature for 3 h, and the polarization values (mP) were measured at an excitation wavelength of 485 nm and an emission wavelength of 530 nm using the plate reader Synergy H1 Hybrid, BioTek. IC50 values were determined by nonlinear regression fitting of the competition curves (GraphPad Prism 6.0 Software). The Ki values were calculated as described previously.
(§2) 1. List of compounds purchased from vendors
(§3) Compound s 5, 6, 7, 8 and S3, S4, S5, S6 S7, S8, S9, S10, S17 were purchased from […]
(§4) Compound s 9, 10, 11 and S11, S12, S13 were purchased from I nterbioscreen […]
His-tagged proteins containing human Mcl-1 (residues 171–323), the isoform 2 construct of the human Bcl-2 [Bcl2-2 construct for protein production starts with the Bcl2 sequence of 1-34 a a, followed by the Bcl-xL seq uence of 35-50 aa, and ends with the Bcl-2 sequenc e of 92-202aa.], Bcl-xL (Human Bcl-xL protein, which has an internal deletion for the 45 -85 amino acid residues and a C -terminal truncation for the amino acid residues 212-233), and Bf l-1 (residues 1-151), were expres sed from the pHis -TEV vector (a modified pET vector) in E. coli BL21 (DE3) cells. Cells were grown at 37 °C in 2×YT containing antibiotics to an OD600 density of 1.5, 1 and 0.8 for Mcl-1, Bcl-xL and Bcl-2 respectively. Protein expression wa s induced by 0 .4 mM IPTG at 20 °C overnight for all proteins except for Bf l-1 which was e xpressed at 3 7 °C for four hours . Cells were lysed in 20 mM HEPES pH 7.5, 200 mM NaCl, 0.1% βME with Leupeptin/Aprotinin (Mcl-1), 25mM Tris pH 8.5, 200mM NaCl (Bcl-2), 50mM Tris pH 7.5, 200 mM NaCl (Bcl-xL) and 50 mM Tris pH 8, 500 mM NaCl, 0. 1% βME with Leupeptin/Aprotinin (Bf l-1). All […]
proteins were purified from the soluble fraction using Ni-NTA resin (QIAGEN), following the manufacturer’s instructions. For purification of TEV-cleaved protein, the amino-terminal His tag was cleaved by incubation with TEV protease and the protein was further purified by anion exchange (Source Q) and gel filtration chromatography (Superdex 75, Amersham Biosciences) in 20mM HEPES pH 7.0, 50 mM NaCl (Mcl-1), […]
NaCl, 0.1% βME (Bcl-xL) and 25 mM Tris pH 7.5, 150 mM NaCl, 25% Glycerol, 0.1% βME ( Bf l-1). His-tagged Mcl-1 protein was used for TR-FRET assay and HSQC-NMR.
His-TEV cleaved Mcl-1, Bcl-2, Bcl-xL, and Bf l-1 were used in fluorescent polarization and surface plasmon resonance binding assays.
Mutant Mcl-1 protein wa s prepared by the QuikChange site -directed mutagenesi s method (Stratagene) , where Arg263 was mutated to Ala. The R263A expression pla smid was transformed into Rosetta2 DE3 cells and purified by the same method as the wildtype protein. Cultures were grown to an OD 600 of 1. 5 at 37 °C in Terrific Broth, induced with 0. 4 mM IPTG, and express ed overnight at 20 °C. The follow-up purification was performed the same way as was for Mcl-1 wild-type recombinant

Bcl-xL = target: T2, Bcl-xL (Homo sapiens, UniProt Q07817, DEL45-85); assay: FP-based competitive binding assay with FAM-Bid; conditions: for IC50 / Ki: FP
T2 construct: His tag (pHis-TEV vector) (N, cleaved yes); made in house; host or cells: E. coli BL21 (DE3)
T2 sequence (Q07817 with tags, fused parts or gaps DEL45-85 limits assumed): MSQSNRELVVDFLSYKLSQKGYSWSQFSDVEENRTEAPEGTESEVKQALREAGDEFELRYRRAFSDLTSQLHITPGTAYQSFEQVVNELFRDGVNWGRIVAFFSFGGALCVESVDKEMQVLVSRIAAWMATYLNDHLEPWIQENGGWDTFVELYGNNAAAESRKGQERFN
Experimental: as §1, §2, §3, §4
(§5) His-tagged proteins containing human Mcl-1 (residues 171–323), the isoform 2 construct of the human Bcl-2 [Bcl2-2 construct for protein production starts with the Bcl2 sequence of 1-34 a a, followed by the Bcl-xL seq uence of 35-50 aa, and ends with the Bcl-2 sequenc e of 92-202aa.], Bcl-xL (Human Bcl-xL protein, which has an internal deletion for the 45 -85 amino acid residues and a C -terminal truncation for the amino acid residues 212-233), and Bf l-1 (residues 1-151), were expres sed from the pHis -TEV vector (a modified pET vector) in E. coli BL21 (DE3) cells. Cells were grown at 37 °C in 2×YT containing antibiotics to an OD600 density of 1.5, 1 and 0.8 for Mcl-1, Bcl-xL and Bcl-2 respectively. Protein expression wa s induced by 0 .4 mM IPTG at 20 °C overnight for all proteins except for Bf l-1 which was e xpressed at 3 7 °C for four hours . Cells were lysed in 20 mM HEPES pH 7.5, 200 mM NaCl, 0.1% βME with Leupeptin/Aprotinin (Mcl-1), 25mM Tris pH 8.5, 200mM NaCl (Bcl-2), 50mM Tris pH 7.5, 200 mM NaCl (Bcl-xL) and 50 mM Tris pH 8, 500 mM NaCl, 0. 1% βME with Leupeptin/Aprotinin (Bf l-1). All

Bfl-1 = target: T3, Bfl-1 (Homo sapiens, UniProt Q16548); assay: FP-based competitive binding assay with FAM-Bid; conditions: for IC50: Bfl-1
T3 construct: Bf l-1 (residues 1-151); His tag (pHis-TEV vector) (N, cleaved yes); made in house; host or cells: E. coli BL21 (DE3)
T3 sequence (Q16548 1-151): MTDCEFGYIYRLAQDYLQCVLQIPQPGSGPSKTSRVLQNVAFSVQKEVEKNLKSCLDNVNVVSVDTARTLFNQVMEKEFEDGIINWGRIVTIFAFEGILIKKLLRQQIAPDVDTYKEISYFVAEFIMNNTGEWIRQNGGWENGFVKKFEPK
Experimental: as §1, §2, §3, §4, §5

Bcl-2 = target: T4, Bcl-2 (Homo sapiens, UniProt P10415, DEL35-91/INS34DVEENRTEAPEGTESE); assay: FP-based competitive binding assay with FAM-Bid; conditions: FP
T4 construct: His tag (pHis-TEV vector) (N, cleaved yes); made in house; host or cells: E. coli BL21 (DE3)
T4 sequence (P10415 with tags, fused parts or gaps INS34DVEEN/V35R/G36T/A37E/P40E/DEL42-87/P88T/V89E/P90S/P91E): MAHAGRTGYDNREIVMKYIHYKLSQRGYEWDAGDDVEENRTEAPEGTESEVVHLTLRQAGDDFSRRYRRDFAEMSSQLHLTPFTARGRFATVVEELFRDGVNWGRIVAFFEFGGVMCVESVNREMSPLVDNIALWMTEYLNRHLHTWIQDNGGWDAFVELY
Experimental: as §1, §2, §3, §4, §5

Structure (SMILES)	Ki (Mcl-1 protein) [µM]	IC50 (Mcl-1 protein)	IC50 (Bcl-xL) [µM]	Ki (Bcl-xL) [µM]	IC50 (Bfl-1) [µM]	Ki (Bfl-1; FP) [µM]	binding to Bfl-1 compared with Mcl-1 (Bfl-1; FP)	IC50 (Bcl-2) [µM]	Ki (Bcl-2) [µM]	fold lower binding affinity to Bcl-xL than to Mcl-1 (Bcl-xL; ratio of Ki) [fold]	fold lower binding affinity to Bfl-1 than to Mcl-1 (Bfl-1; ratio of Ki) [fold]
O=C(CSc1nnc(-c2ccco2)c(-c2ccco2)n1)Nc1ccccc1 [Compound 19]	3.2 ± 0.3	13 µM and 13.8 µM	> 100	> 20	35.6 ± 8.6	4.9	lower binding to Bfl-1 in comparison to Mcl-1	> 100	> 25	–	–
c1ccc(CCCCSc2nnc(-c3ccco3)c(-c3ccco3)n2)cc1 [Compound 44]	0.3 ± 0.1	1.4 ± 0.2 µM	> 100	> 20	5.1 ± 0.1	0.7 ± 0.1	–	> 100	> 25	–	–
O=C(CSc1nnc(-c2ccco2)c(-c2ccco2)n1)Nc1cccc(C(F)(F)F)c1 [Compound 39]	1.2 ± 0.1	5.1 ± 0.5 µM	> 100	> 20	75.9 ± 6.2	10.4	–	> 100	> 25	> 17	8

— article PMC6033896, “Discovery of Mcl-1 inhibitors from integrated high throughput and virtual screening” (Scientific Reports, 2018)
